{
  "source": "patent US20240319167A1",
  "about": "“CELL INFORMATION ACQUISITION METHOD, AND PROGRAM” (CANON KABUSHIKI KAISHA, priority 2023, published 2024)",
  "key": {"COR-L23 cells": {"system": "COR-L23 cells", "test": "Autofluorescence luminance ratio (G component/B component) after adding metabolism changing reagent", "type": "cell-based, human", "details": "antimycin A 1 μM where added, incubated an hour after D-glucose removal, FIG. 3", "description": "(§1) Human lung cancer cells NCI-H322 (KAC Co., Ltd.) were cultured in a culture medium 103 for cell culture (KAC Co., Ltd.). Human lung cancer cells COR-L23 (KAC Co., Ltd.) were cultured in a culture medium 103 for cell culture (KAC Co., Ltd.). A cell culture vessel was a 35 mm glass bottom dish (IWAKI) for any case. […] The area of a nucleus region was acquired and labelled. […] Average value of G component/Average value of B component was calculated cell by cell and plotted as a box-and-whisker plot (FIG. 3). […] NCI-H322 cells were cultured in a 35 mm glass bottom dish, and COR-L23 cells were cultured in a 35 mm glass bottom dish. […] As negative control, only removal of D-glucose was performed for both NCI-H322 cells and COR-L23 cells to create samples not added with a metabolism changing reagent. An autofluorescence image of each of the samples was captured. Subsequently, nuclear staining and mitochondria staining were performed to stain nuclei and mitochondria, and similarly stained images were captured with an image capturing apparatus."}, "NCI-H322 cells": {"system": "NCI-H322 cells", "test": "Autofluorescence luminance ratio (G component/B component) after adding metabolism changing reagent", "type": "cell-based, human", "details": "antimycin A 1 μM where added, incubated an hour after D-glucose removal, FIG. 3", "description": "as §1"}},
  "data": [
    {"smiles": "O=C[C@H](O)[C@@H](O)[C@H](O)[C@H](O)CO", "note": "[D-glucose]", "values": [
      {"measurement": "G component/B component of autofluorescence (365 nm excitation/430 nm long pass filter) versus negative control", "setting": "COR-L23 cells", "value": "no significant difference"},
      {"measurement": "G component/B component of autofluorescence (365 nm excitation/430 nm long pass filter) versus negative control", "setting": "NCI-H322 cells", "value": "no significant difference"}
    ]}
  ]
}
